Consider 1 molecule from US20190106498A1, “TREATMENT FOR ACUTE MYELOID LEUKEMIA” (priority 2017, published 2019).

In experiment [1] the test system is AML. The following applies: aza alone; cited from earlier work.
In experiment [2] the test system is LSCs. Kind of experiment: CD70 expression on LSCs of AML patients treated with HMA. The format is in vivo, human. To be noted: newly diagnosed AML patients after HMA treatment.
Experimental: (FIG. 2A) Representative FACS plots of CD70 expression on lin-CD90+CD34+CD38− AML stem/progenitor cells after culture in the presence or absence of 0.5 mM decitabine (D) or vehicle (Veh). Isotype: grey; CD70: black. (FIG. 2B) Cell Viability. (FIG. 2C) Fold change ΔMFI CD70 and (FIG. 2D) mRNA CD70 expression (AML: n=9-15; healthy: n=3). (FIG. 2E) Representative FACS plot and (FIG. 2F) fold change ΔMFI CD70 on stem/progenitor cells in the peripheral blood of AML patients at diagnosis and after 1 cycle of decitabine or azacitidine treatment (D(5), 20 mg/kg, daily for 5 days; A(7), 75 mg/m^2, daily for 7 days).

Consider `Nc1ncn([C@@H]2O[C@H](CO)[C@@H](O)[C@H]2O)c(=O)n1` [azacitidine], for which, in experiment [1], the response rate result was “approximately 25%”. Also, the “CD70 expression on LSCs compared to level at diagnosis” value in experiment [2] was “increase in CD70 expression”.
